Measured values published in ChEMBL document CHEMBL3885881, “DrugMatrix”.

Species on record: Rattus norvegicus
Test: DrugMatrix - Regimen: Daily Repeat
Assay type: toxicity, organism-based, Sprague-Dawley
Parameters: regimen Daily Repeat, gender Male, age 6-8 weeks
Settings: in vivo, route none, vehicle 100 % UNTREATED
[1] = 0 mg/kg, 120 h, tissue Blood, dose level Control, time 5 day
[2] = 0 mg/kg, 120 h, tissue Plasma, dose level Control, time 5 day
[3] = 0 mg/kg, […], tissue Blood, dose level Control, time 14 day
[4] = 0 mg/kg, […], tissue Plasma, dose level Control, time 14 day
[5] = 50 mg/kg, 120 h, tissue Blood, dose level Low, time 5 day
[6] = 50 mg/kg, 120 h, tissue Plasma, dose level Low, time 5 day
[7] = 50 mg/kg, […], tissue Blood, dose level Low, time 14 day
[8] = 50 mg/kg, […], tissue Plasma, dose level Low, time 14 day
[9] = 60 mg/kg, 120 h, tissue Blood, dose level M1, time 5 day

## Diet_Restriction
[1]
  ABSOLUTE BASOPHIL: 0 CELLS/uL
  ABSOLUTE EOSINOPHIL: 42.67 CELLS/uL
  ABSOLUTE LYMPHOCYTE: 11593.33 CELLS/uL
  ABSOLUTE MONOCYTE: 174.33 CELLS/uL
  ABSOLUTE SEGMENTED NEUTROPHIL: 1356.33 CELLS/uL
  BASOPHIL: 0%
  EOSINOPHIL: 0.33%
  ERYTHROCYTE COUNT: 5.67 x10E6/uL
  HEMATOCRIT: 43.37%
  HEMOGLOBIN: 12.33 G/DL
  LEUKOCYTE COUNT: 13.17 x10E3/uL
  LYMPHOCYTE: 88%
  MEAN CORPUSCULAR HEMOGLOBIN: 21.77 pg
  MEAN CORPUSCULAR HEMOGLOBIN CONCENTRATION: 36.93 G/DL
  MEAN CORPUSCULAR VOLUME: 58.9 fL
  NUCLEATED RED BLOOD CELLS: 0 /100WBC
  PLATELET COUNT: 942.33 x10E3/uL
[2]
  ALANINE AMINOTRANSFERASE: 42.67 u/L
  ALBUMIN: 4.2 G/DL
  ALKALINE PHOSPHATASE: 336.33 u/L
  ASPARTATE AMINOTRANSFERASE: 74 u/L
  BLOOD UREA NITROGEN: 12.67 mg/dL
  CARBON DIOXIDE: 32.33 mmol/L
  CHOLESTEROL: 78.67 mg/dL
  CREATINE PHOSPHOKINASE: 847.33 u/L
  CREATININE: 0.22 mg/dL
  LACTATE DEHYDROGENASE: 139.67 u/L
  POTASSIUM: 6.74 MEQ/L
  TOTAL BILIRUBIN: 0.13 mg/dL
  URIC ACID: 1.3 mg/dL
[3]
  ABSOLUTE BASOPHIL: 0 CELLS/uL
  ABSOLUTE EOSINOPHIL: 46.33 CELLS/uL
  ABSOLUTE LYMPHOCYTE: 13977 CELLS/uL
  ABSOLUTE MONOCYTE: 264.67 CELLS/uL
  ABSOLUTE SEGMENTED NEUTROPHIL: 1445.33 CELLS/uL
  BASOPHIL: 0%
  EOSINOPHIL: 0.33%
  ERYTHROCYTE COUNT: 6.27 x10E6/uL
  LEUKOCYTE COUNT: 15.73 x10E3/uL
  LYMPHOCYTE: 89%
  MEAN CORPUSCULAR HEMOGLOBIN: 22.27 pg
  MEAN CORPUSCULAR HEMOGLOBIN CONCENTRATION: 37.13 G/DL
  NEUTROPHIL: 9%
  NUCLEATED RED BLOOD CELLS: 0 /100WBC
  PLATELET COUNT: 923 x10E3/uL
[4]
  ALANINE AMINOTRANSFERASE: 48.67 u/L
  ALKALINE PHOSPHATASE: 360 u/L
  ASPARTATE AMINOTRANSFERASE: 67 u/L
  CARBON DIOXIDE: 32 mmol/L
  CHLORIDE: 99 MEQ/L
  CHOLESTEROL: 92.67 mg/dL
  CREATINE PHOSPHOKINASE: 220.67 u/L
  CREATININE: 0.19 mg/dL
  LACTATE DEHYDROGENASE: 88.33 u/L
  LIPASE: 10 u/L
  PHOSPHORUS: 13.07 mg/dL
  POTASSIUM: 6.69 MEQ/L
  TOTAL BILIRUBIN: 0.17 mg/dL
  TOTAL PROTEIN: 6.33 G/DL
  URIC ACID: 1.9 mg/dL
[5]
  ABSOLUTE BASOPHIL: 0 CELLS/uL
  ABSOLUTE EOSINOPHIL: 0 CELLS/uL
  ABSOLUTE LYMPHOCYTE: 5557.67 CELLS/uL
  ABSOLUTE MONOCYTE: 33.33 CELLS/uL
  ABSOLUTE SEGMENTED NEUTROPHIL: 409 CELLS/uL
  BASOPHIL: 0%
  EOSINOPHIL: 0%
  ERYTHROCYTE COUNT: 6.2 x10E6/uL
  HEMOGLOBIN: 13.47 G/DL
  LEUKOCYTE COUNT: 6 x10E3/uL
  LYMPHOCYTE: 93%
  MEAN CORPUSCULAR HEMOGLOBIN: 21.73 pg
  MEAN CORPUSCULAR HEMOGLOBIN CONCENTRATION: 37.13 G/DL
  MEAN CORPUSCULAR VOLUME: 58.43 fL
  MONOCYTE: 0.67%
  NEUTROPHIL: 6.33%
  NUCLEATED RED BLOOD CELLS: 0 /100WBC
  PLATELET COUNT: 1004.67 x10E3/uL
[6]
  ALBUMIN: 4.4 G/DL
  ALKALINE PHOSPHATASE: 272.67 u/L
  ASPARTATE AMINOTRANSFERASE: 69 u/L
  BLOOD UREA NITROGEN: 10 mg/dL
  CHOLESTEROL: 67.33 mg/dL
  CREATININE: 0.15 mg/dL
  GLUCOSE: 121.33 mg/dL
  LACTATE DEHYDROGENASE: 95.33 u/L
  LIPASE: 10 u/L
  PHOSPHORUS: 10.03 mg/dL
  POTASSIUM: 6.08 MEQ/L
  SODIUM: 146.6 MEQ/L
  TOTAL BILIRUBIN: 0.13 mg/dL
  TOTAL PROTEIN: 6.27 G/DL
  URIC ACID: 1.13 mg/dL
[7]
  ABSOLUTE BASOPHIL: 0 CELLS/uL
  ABSOLUTE EOSINOPHIL: 34 CELLS/uL
  ABSOLUTE LYMPHOCYTE: 10004 CELLS/uL
  ABSOLUTE MONOCYTE: 145.67 CELLS/uL
  ABSOLUTE SEGMENTED NEUTROPHIL: 1049.67 CELLS/uL
  BASOPHIL: 0%
  EOSINOPHIL: 0.33%
  ERYTHROCYTE COUNT: 7.11 x10E6/uL
  HEMATOCRIT: 38.27%
  LEUKOCYTE COUNT: 11.23 x10E3/uL
  LYMPHOCYTE: 89.33%
  MEAN CORPUSCULAR HEMOGLOBIN: 19.8 pg
  MEAN CORPUSCULAR HEMOGLOBIN CONCENTRATION: 36.77 G/DL
  MEAN CORPUSCULAR VOLUME: 53.83 fL
  NEUTROPHIL: 9%
  NUCLEATED RED BLOOD CELLS: 0 /100WBC
  PLATELET COUNT: 891.33 x10E3/uL
[8]
  ALANINE AMINOTRANSFERASE: 40.33 u/L
  ALBUMIN: 4.2 G/DL
  ALKALINE PHOSPHATASE: 255.67 u/L
  ASPARTATE AMINOTRANSFERASE: 75 u/L
  BLOOD UREA NITROGEN: 15 mg/dL
  CHOLESTEROL: 62.33 mg/dL
  CREATINE PHOSPHOKINASE: 467.33 u/L
  CREATININE: 0.22 mg/dL
  GLUCOSE: 163.67 mg/dL
  LACTATE DEHYDROGENASE: 62.33 u/L
  POTASSIUM: 5.28 MEQ/L
  TOTAL BILIRUBIN: 0.1 mg/dL
  TOTAL PROTEIN: 6.1 G/DL
  URIC ACID: 1.5 mg/dL
[9]
  ABSOLUTE BASOPHIL: 0 CELLS/uL
  ABSOLUTE EOSINOPHIL: 49.33 CELLS/uL
  ABSOLUTE LYMPHOCYTE: 3766.67 CELLS/uL
  ABSOLUTE MONOCYTE: 29.33 CELLS/uL
  ABSOLUTE SEGMENTED NEUTROPHIL: 454.67 CELLS/uL
